Measurements as given in ChEMBL document CHEMBL4507268 (2021).

Tests used:
Conditions in all cases: Compound concentration 1.0 uM
[1] = target: CDK9/cyclin T1 (Homo sapiens) (UniProt O60563+P50750)
[2] = target: T1, Serine/threonine-protein kinase STK11 (Homo sapiens) (UniProt Q15831)
T1 sequence (whole entry): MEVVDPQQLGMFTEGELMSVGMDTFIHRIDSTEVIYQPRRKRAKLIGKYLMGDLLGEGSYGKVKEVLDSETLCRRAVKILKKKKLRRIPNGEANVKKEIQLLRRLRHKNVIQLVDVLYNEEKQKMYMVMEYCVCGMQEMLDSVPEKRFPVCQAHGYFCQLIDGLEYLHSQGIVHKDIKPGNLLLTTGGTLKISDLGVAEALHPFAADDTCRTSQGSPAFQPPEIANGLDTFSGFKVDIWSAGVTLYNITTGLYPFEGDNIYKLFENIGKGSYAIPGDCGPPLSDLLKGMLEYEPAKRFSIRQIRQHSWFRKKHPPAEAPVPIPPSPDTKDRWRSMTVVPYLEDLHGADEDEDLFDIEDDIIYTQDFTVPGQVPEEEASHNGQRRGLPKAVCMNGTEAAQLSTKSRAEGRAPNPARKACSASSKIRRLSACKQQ

[3] = target: T2, Serine/threonine-protein kinase ULK3 (Homo sapiens) (UniProt Q6PHR2)
T2 sequence (whole entry): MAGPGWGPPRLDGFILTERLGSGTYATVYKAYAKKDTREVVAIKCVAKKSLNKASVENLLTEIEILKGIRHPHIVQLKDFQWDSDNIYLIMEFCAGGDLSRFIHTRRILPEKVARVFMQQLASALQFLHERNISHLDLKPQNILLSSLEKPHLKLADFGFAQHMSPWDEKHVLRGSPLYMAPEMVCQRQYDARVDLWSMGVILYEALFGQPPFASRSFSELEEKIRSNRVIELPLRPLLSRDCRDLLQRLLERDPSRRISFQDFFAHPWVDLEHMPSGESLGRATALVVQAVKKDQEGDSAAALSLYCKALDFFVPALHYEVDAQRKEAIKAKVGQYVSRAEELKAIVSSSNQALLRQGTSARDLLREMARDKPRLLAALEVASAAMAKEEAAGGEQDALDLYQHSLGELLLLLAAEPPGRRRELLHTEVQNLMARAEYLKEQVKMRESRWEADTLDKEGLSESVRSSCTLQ

[4] = target: T3, Testis-specific serine/threonine-protein kinase 1 (Homo sapiens) (UniProt Q9BXA7)
T3 sequence (whole entry): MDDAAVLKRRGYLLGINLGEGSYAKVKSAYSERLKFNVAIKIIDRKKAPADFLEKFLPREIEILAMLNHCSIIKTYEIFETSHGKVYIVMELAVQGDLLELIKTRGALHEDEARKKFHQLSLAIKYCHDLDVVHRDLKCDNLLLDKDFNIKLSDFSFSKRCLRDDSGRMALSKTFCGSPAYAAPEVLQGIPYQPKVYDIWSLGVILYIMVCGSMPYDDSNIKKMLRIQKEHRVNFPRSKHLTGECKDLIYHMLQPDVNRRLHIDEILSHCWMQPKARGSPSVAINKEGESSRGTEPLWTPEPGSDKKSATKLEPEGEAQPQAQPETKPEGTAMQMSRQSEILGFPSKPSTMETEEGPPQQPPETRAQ

[5] = target: Ephrin type-A receptor 5 (Homo sapiens) (UniProt P54756)
[6] = target: Calcium/calmodulin-dependent protein kinase kinase 2 (Homo sapiens) (UniProt Q96RR4)
[7] = target: Tyrosine-protein kinase Fgr (Homo sapiens) (UniProt P09769)
[8] = target: T4, Mitogen-activated protein kinase kinase kinase 2 (Homo sapiens) (UniProt Q9Y2U5)
T4 sequence (whole entry): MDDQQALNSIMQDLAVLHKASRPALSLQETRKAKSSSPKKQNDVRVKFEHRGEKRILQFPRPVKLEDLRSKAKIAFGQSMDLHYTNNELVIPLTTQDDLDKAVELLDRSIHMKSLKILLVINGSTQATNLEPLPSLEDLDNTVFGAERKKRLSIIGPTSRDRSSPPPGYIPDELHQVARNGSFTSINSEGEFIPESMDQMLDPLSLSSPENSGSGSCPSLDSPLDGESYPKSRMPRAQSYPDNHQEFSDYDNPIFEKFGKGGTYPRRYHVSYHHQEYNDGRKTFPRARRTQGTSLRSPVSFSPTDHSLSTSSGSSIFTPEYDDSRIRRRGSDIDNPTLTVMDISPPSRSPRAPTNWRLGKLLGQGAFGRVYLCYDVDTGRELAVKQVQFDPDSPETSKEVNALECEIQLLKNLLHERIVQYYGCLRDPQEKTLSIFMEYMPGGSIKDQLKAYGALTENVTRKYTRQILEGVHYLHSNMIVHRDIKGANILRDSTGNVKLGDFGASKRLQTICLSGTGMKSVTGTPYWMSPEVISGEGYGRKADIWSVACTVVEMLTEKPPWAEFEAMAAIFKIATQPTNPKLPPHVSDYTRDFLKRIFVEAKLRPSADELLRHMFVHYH

[9] = target: Bone morphogenetic protein receptor type-1B (Homo sapiens) (UniProt O00238)
[10] = target: Rho-associated protein kinase 1 (Homo sapiens) (UniProt Q13464)
[11] = target: Tau-tubulin kinase 2 (Homo sapiens) (UniProt Q6IQ55)
[12] = target: Cyclin-dependent kinase 5/CDK5 activator 1 (Homo sapiens) (UniProt Q00535+Q15078)
[13] = target: Tyrosine-protein kinase SYK (Homo sapiens) (UniProt P43405)
[14] = target: Serine/threonine-protein kinase A-Raf (Homo sapiens) (UniProt P10398)

Measured: % residual kinase activity

Chain of Rho-associated protein kinase 1 (Homo sapiens) (Q13464 2-1354 limits assumed): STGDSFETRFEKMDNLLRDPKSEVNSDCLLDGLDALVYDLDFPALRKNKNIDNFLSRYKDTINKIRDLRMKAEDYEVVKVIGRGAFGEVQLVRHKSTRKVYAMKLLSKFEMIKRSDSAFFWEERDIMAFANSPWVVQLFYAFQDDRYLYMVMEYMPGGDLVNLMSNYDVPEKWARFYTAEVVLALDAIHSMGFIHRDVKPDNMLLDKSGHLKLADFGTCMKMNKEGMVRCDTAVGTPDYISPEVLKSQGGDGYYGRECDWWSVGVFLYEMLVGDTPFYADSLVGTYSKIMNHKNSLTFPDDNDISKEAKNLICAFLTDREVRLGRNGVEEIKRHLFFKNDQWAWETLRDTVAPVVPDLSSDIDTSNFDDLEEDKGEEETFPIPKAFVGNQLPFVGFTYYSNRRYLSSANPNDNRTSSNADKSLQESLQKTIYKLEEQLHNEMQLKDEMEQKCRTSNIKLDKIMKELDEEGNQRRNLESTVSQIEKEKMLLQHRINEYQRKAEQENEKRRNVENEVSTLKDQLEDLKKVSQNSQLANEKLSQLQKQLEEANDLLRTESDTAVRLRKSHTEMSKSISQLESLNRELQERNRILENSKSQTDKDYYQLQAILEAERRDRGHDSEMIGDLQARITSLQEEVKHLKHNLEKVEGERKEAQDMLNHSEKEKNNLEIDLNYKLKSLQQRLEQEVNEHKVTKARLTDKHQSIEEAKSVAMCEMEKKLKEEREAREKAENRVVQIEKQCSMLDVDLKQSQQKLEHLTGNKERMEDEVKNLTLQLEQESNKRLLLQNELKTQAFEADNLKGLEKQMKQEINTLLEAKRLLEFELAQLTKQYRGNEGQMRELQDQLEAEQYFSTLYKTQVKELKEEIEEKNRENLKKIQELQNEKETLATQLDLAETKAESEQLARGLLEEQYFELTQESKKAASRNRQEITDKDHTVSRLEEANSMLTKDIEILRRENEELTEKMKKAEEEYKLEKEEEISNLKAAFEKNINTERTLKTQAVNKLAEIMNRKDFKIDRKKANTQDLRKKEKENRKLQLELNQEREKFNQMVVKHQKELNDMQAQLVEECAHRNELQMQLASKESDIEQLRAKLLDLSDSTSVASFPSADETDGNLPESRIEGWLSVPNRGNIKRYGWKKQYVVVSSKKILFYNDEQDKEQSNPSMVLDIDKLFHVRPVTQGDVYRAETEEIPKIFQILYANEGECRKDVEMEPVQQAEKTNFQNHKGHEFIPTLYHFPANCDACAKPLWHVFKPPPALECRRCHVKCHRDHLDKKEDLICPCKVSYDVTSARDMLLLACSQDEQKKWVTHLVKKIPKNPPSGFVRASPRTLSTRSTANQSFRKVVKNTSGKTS
Chain of Tau-tubulin kinase 2 (Homo sapiens) (Q6IQ55 whole entry): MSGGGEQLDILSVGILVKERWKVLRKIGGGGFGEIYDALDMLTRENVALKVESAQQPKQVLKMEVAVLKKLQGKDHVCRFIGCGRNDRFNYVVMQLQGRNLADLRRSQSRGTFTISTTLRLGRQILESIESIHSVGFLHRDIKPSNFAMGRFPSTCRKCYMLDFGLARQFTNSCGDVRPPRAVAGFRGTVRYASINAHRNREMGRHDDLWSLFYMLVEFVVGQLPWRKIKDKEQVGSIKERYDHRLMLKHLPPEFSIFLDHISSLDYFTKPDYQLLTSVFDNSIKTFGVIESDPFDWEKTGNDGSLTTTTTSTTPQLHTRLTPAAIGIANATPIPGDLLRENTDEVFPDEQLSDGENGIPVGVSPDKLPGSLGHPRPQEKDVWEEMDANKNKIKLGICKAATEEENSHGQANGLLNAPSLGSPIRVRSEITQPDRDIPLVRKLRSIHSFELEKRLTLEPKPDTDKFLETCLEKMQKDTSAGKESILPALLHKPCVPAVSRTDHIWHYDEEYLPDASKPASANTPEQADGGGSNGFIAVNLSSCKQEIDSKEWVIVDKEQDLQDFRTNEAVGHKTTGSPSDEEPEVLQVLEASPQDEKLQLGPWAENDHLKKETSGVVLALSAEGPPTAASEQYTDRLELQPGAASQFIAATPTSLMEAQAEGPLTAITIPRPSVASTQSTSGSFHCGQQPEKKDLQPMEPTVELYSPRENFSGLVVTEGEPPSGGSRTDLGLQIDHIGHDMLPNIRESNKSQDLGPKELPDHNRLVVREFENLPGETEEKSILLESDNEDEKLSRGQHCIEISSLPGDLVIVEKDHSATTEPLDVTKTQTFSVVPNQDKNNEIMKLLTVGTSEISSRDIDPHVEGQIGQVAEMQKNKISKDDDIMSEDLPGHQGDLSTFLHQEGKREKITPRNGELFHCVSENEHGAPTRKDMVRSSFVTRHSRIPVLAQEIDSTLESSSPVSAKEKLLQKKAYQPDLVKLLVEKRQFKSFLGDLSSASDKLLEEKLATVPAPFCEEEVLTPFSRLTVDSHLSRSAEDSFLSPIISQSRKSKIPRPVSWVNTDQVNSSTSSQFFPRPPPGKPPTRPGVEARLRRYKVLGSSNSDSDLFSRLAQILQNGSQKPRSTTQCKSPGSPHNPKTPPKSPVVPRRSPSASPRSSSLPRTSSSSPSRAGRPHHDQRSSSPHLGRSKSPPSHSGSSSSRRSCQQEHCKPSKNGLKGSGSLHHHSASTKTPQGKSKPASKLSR
Chain of Bone morphogenetic protein receptor type-1B (Homo sapiens) (O00238 whole entry): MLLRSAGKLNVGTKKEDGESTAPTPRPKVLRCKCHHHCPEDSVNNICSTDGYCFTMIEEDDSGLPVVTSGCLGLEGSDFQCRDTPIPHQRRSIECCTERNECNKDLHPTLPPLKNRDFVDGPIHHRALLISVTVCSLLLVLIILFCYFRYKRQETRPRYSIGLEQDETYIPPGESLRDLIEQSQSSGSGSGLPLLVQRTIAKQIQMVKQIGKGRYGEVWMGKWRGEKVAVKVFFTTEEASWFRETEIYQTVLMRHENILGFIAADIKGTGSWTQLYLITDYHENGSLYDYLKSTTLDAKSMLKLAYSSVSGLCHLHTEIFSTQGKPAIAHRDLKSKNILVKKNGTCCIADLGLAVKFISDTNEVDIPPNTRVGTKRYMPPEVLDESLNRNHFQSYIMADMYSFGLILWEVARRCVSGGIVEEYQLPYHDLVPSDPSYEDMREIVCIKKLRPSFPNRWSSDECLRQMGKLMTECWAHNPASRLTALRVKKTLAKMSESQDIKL
Chain of Tyrosine-protein kinase Fgr (Homo sapiens) (P09769 2-529 limits assumed): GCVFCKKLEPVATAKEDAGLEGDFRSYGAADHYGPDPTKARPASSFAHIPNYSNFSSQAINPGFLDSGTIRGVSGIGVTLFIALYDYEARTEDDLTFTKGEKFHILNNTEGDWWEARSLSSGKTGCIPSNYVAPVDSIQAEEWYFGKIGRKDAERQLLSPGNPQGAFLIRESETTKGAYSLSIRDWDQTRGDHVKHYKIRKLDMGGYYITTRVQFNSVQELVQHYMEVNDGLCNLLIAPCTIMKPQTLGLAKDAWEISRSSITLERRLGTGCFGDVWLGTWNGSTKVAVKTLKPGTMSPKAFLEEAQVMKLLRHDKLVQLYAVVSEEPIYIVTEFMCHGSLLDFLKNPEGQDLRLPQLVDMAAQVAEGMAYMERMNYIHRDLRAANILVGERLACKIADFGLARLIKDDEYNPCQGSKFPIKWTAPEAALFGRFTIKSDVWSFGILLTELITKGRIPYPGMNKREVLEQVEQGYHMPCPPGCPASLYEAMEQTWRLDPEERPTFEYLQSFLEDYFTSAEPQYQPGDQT
Chain of Serine/threonine-protein kinase A-Raf (Homo sapiens) (P10398 whole entry): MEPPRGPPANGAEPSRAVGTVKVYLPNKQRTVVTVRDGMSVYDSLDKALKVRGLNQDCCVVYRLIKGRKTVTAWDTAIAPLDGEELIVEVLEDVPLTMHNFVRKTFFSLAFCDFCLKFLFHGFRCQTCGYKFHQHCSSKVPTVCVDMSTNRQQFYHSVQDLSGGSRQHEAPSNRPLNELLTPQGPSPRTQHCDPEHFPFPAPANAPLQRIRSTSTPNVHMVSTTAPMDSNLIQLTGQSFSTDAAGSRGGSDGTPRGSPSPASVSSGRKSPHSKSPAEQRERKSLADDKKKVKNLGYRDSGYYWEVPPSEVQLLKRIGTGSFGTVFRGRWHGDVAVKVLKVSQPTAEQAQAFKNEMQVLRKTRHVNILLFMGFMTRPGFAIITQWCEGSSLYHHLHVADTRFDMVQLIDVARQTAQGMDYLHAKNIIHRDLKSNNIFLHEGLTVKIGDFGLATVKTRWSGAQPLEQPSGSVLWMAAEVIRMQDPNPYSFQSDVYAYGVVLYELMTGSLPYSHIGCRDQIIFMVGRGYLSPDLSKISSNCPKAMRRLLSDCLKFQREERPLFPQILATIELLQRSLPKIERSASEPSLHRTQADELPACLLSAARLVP
Chain of Cyclin-dependent kinase 5/CDK5 activator 1 (Homo sapiens) (Q00535 whole entry): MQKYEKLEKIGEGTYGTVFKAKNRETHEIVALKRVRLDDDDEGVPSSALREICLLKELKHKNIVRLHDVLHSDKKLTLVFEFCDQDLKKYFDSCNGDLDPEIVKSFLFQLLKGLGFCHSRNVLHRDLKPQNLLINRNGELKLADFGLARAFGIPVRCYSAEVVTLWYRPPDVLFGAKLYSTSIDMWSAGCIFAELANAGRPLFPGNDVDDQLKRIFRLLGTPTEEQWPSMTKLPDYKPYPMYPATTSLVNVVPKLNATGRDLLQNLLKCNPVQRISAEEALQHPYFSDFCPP
Chain of Cyclin-dependent kinase 5/CDK5 activator 1 (Homo sapiens) (Q15078 99-307 partner limits assumed): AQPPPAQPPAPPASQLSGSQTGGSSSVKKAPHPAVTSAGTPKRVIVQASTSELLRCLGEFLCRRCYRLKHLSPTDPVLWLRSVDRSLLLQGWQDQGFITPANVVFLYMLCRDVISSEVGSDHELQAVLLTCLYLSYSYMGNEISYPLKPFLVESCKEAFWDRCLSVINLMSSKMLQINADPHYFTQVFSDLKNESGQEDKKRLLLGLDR

CN1CCN(c2cnc3c(C4CCN(C(=O)c5ccc(OC(F)(F)F)cc5N)CC4)ncnc3c2)CC1 [BAY-885]
inactive: [1] 103% | [2] 104% | [3] 98% | [4] 107% | [5] 57% | [6] 102% | [7] 98% | [8] 116% | [9] 102% | [10] 112% | [11] 98% | [12] 107% | [13] 87% | [14] 96%
